Values joined by “and” are separate entries in the source; they are usually repeats but may differ in a detail not shown here. Equal entries are not always repeated.
How the values were obtained:
[1] = Storage stability of solid form, XRPD after storage; assay type: physicochemical
Procedure: Six scale-up attempts are conducted to prepare Crystalline Form C by cooling in isopropanol on approximately 50-150 mg scale (Table 11) and the solids tested by XRPD. At refrigerator temperature, precipitated solids yield Form B. Seeding with Form C after cooling in the refrigerator (no solids observed) and before placing in the freezer yield XRPD pattern of Form C with B peaks. Precipitation at freezer temperature results in solids with an XRPD pattern of Form C with A peaks. A solution placed in the freezer after cooling to room temperature with a lower concentration (7 mg/mL compared to 10 mg/mL) yields Form B. By crash cooling (ambient solution placed into dry ice/isopropanol), solids generated are a mixture of Forms B and A. The last attempt on an approximate 50-mg scale generates a mixture of Forms A and C.
An elliptically graded multilayer mirror is used to focus Cu Kα X-rays through the specimen and onto the detector. Prior to the analysis, a silicon specimen (NIST SRM 640e) is analyzed to verify the observed position of the Si 111 peak is consistent with the NIST-certified position. A specimen of the sample is sandwiched between 3-μm-thick films and analyzed in transmission geometry. A beam-stop, short antiscatter extension, and antiscatter knife edge are used to minimize the background generated by air. Soller slits for the incident and diffracted beams are used to minimize broadening from axial divergence. The diffraction pattern is collected using a scanning position-sensitive detector (X'Celerator) located 240 mm from the specimen and Data Collector software v. 2.2b. Data acquisition parameters are: Panalytical X-Pert Pro MPD PW3040 Pro, X-ray Tube: Cu (1.54059 Å), Voltage: 45 kV, Amperage: 40 mA, Scan Range: 1.00-39.99° 2θ, Step Size: 0.017° 2θ, Collection Time: 719 s, Scan Speed: 3.3°/min., Slit: DS: ½°, SS: null, Revolution Time: 1.0 s, Mode: Transmission.

[2] = Solution calorimetry (SolCal), heats of solution in methanol; assay type: physicochemical; conditions: methanol, 25° C., hydrochloride
Procedure: For each test, two heats of solution are obtained—one calculated using a calibration preceding the sample analysis and one calculated using a calibration following the sample analysis. Clear solutions are observed after each test.
Solution calorimetry is performed using a Thermometric 2225 Precision Solution calorimeter, a semi-adiabatic calorimeter. Solution calorimeter System v.1.2 software is used. Samples are weighed into glass crushing ampoules and are sealed using silicone rubber plugs and hot wax. Experiments are carried out in 100 mL of methanol at 25° C. The measurement of the heats of solution of the samples is both preceded and followed by calibrations using an internal heater. The heats of solution are calculated using dynamic of calibration model.

Cl.c1ccc2cc([C@]34CNC[C@H]3C4)ccc2c1 [Crystalline Form A, (1R,5S)-1-(naphthalen-2-yl)-3-azabicyclo[3.1.0]hexane hydrochloride]
solid form by XRPD after long-term storage ([1]; long-term storage, product of Example 5): consistent with Crystalline Form A | XRPD Result after 22 days of ambient storage ([1]; solids from IPA CC (70° C. to dry ice/IPA), freezer/2 d, after 22 days of ambient storage): storage: C + | average heat of solution ([2]; triplicate, endothermic): 48.618 J/g | average heat of solution ([2]; average of three replicates): 48.618 J/g | ΔH2 (heat of solution) ([2]; calculated using the calibration after breaking the sample vial, single replicates): 49.905 J/g and 50.168 J/g and 49.217 J/g | ΔH1 (heat of solution) ([2]; calculated using the calibration before breaking the sample vial, single replicates): 48.077 J/g and 46.050 J/g and 48.293 J/g | ΔHmean (heat of solution) ([2]; mean of the two calibrations, single replicates): 48.991 J/g and 48.109 J/g and 48.755 J/g
